Assay results: patent US8962655B2, “Composition for treatment of undifferentiated gastric cancer” (Eisai R&D Management Co., Ltd., priority 2007, dated 2015)

What was measured:
Type in all cases: in vivo
[1] = tested on: human scirrhous gastric cancer cell line (HSC-39); assay: Combination use with 5-fluorouracil in subcutaneous transplanted (xenograft) models of HSC-39; conditions: HSC-39 xenograft, nude mice
Method: (§1) Human scirrhous gastric cancer cell line HSC-39 (purchased from Immuno-Biological Laboratories Co., Ltd.) was cultured in RPMI1640 (containing 10% FBS) in a 5% carbon dioxide gas incubator at 37° C. to about 80% confluence, and then the cells were collected with trypsin-EDTA. A 5×10^7 cells/mL suspension was prepared with a phosphate buffer, and each 0.1 mL of the resulting cell suspension was subcutaneously transplanted to nude mice at the side of their bodies. Thirteen days after the transplantation, 4-(3-chloro-4-(cyclopropylaminocarbonyl)aminophenoxy)-7-methoxy-6-quinolinecarboxamide (3, 10 or 30 mg/kg, once a day for four weeks, oral) and 5-fluorouracil (Kyowa Hakko) (50 mg/kg, every four days for three times, intravenous) were administered alone or in combination. The major and minor axes of tumors were measured with Digimatic caliper (Mitsutoyo Corporation), and tumor volumes and relative tumor volumes were calculated according to the following formulae: […]

[2] = tested on: human scirrhous gastric cancer cell line (HSC-39); assay: Combination use with irinotecan hydrochloride in subcutaneous transplanted (xenograft) models of HSC-39; conditions: once a day for four weeks, oral, HSC-39 xenograft, nude mice
Method: Human scirrhous gastric cancer cell line HSC-39 (purchased from Immuno-Biological Laboratories Co,. Ltd.) was cultured in RPMI1640 (containing 10% FBS) in a 5% carbon dioxide gas incubator at 37° C. to about 80% confluence, and then the cells were collected with trypsin-EDTA. A 5×10^7 cells/mL suspension was prepared with a phosphate buffer, and each 0.1 mL of the resulting cell suspension was subcutaneously transplanted to nude mice at the side of their bodies.
Twelve days after the transplantation, 4-(3-chloro-4-(cyclopropylaminocarbonyl)aminophenoxy)-7-methoxy-6-quinolinecarboxamide (3, 10 or 30 mg/kg, once a day for four weeks, oral) and irinotecan hydrochloride (Daiichi Seiyaku) (100 mg/kg, every four days for three times, intravenous) were administered alone or in combination. The major and minor axes of tumors were measured with Digimatic caliper (Mitsutoyo Corporation), and tumor volumes and relative tumor volumes were calculated according to the following formulae: Tumor Volume (TV)=Major axis of tumor (mm)×(Minor axis of tumor)^2 (mm^2)/2 Relative Tumor Volume (RTV)=Tumor volume on measurement day/Tumor volume on the first administration day.

[3] = tested on: human scirrhous gastric cancer cell line (HSC-39); assay: Combination use with paclitaxel in subcutaneous transplanted (xenograft) models of HSC-39; conditions: HSC-39 xenograft, nude mice
Method: as §1, with “Eleven” for “Thirteen”, “paclitaxel (Calbiochem) (14” for “5-fluorouracil (Kyowa Hakko) (50”, “once a day” for “every four days”, “five days,” for “three times,”

[4] = Compound A 3 mg/kg alone, once a day for four weeks, oral
[5] = Compound A 10 mg/kg alone, once a day for four weeks, oral
[6] = Compound A 30 mg/kg alone, once a day for four weeks, oral

Compound: O=c1[nH]cc(F)c(=O)[nH]1 [5-Fluorouracil, 5-fluorouracil, reference compound]
- Relative tumor volume on Day 29 Average ± standard deviation ([1]; 5-fluorouracil 50 mg/kg alone, every four days for three times, intravenous): 5.16 ± 1.37

Compound: COc1cc2nccc(Oc3ccc(NC(=O)NC4CC4)c(Cl)c3)c2cc1C(N)=O [Compound A, 4-(3-chloro-4-(cyclopropylaminocarbonyl)aminophenoxy)-7-methoxy-6-quinolinecarboxamide]
- Relative tumor volume on Day 29 Average ± standard deviation ([2]; Compound A 3 mg/kg alone): 4.29 ± 1.51
- Relative tumor volume on Day 29 Average ± standard deviation ([2]; Compound A 10 mg/kg alone): 2.93 ± 1.55
- Relative tumor volume on Day 29 Average ± standard deviation ([2]; Compound A 30 mg/kg alone): 1.76 ± 0.92
- Relative tumor volume on Day 29 Average ± standard deviation [3, 4]: 3.79 ± 1.43
- Relative tumor volume on Day 29 Average ± standard deviation [3, 5]: 3.27 ± 1.26
- Relative tumor volume on Day 29 Average ± standard deviation [3, 6]: 1.69 ± 0.72
- Relative tumor volume on Day 29 Average ± standard deviation [1, 4]: 4.16 ± 1.28
- Relative tumor volume on Day 29 Average ± standard deviation [1, 5]: 3.73 ± 1.21
- Relative tumor volume on Day 29 Average ± standard deviation [1, 6]: 2.72 ± 1.33

Compound: CC(=O)O[C@H]1C(=O)[C@@]2(C)[C@H]([C@H](OC(=O)c3ccccc3)[C@]3(O)C[C@H](OC(=O)[C@H](O)[C@@H](NC(=O)c4ccccc4)c4ccccc4)C(C)=C1C3(C)C)[C@]1(OC(C)=O)CO[C@@H]1C[C@@H]2O [Paclitaxel, paclitaxel, reference compound]
- Relative tumor volume on Day 29 Average ± standard deviation ([3]; paclitaxel 14 mg/kg alone, once a day for five days, intravenous): 4.26 ± 2.06
